This passage reports Ki results from publication PMC3880142 (ACS chemical biology, 2013).

Each structure is given as a SMILES string.

The experiment deals with T1, CadD (Leptospira interrogans, UniProt Q72V44).
T1 sequence (Q72V44 1-442): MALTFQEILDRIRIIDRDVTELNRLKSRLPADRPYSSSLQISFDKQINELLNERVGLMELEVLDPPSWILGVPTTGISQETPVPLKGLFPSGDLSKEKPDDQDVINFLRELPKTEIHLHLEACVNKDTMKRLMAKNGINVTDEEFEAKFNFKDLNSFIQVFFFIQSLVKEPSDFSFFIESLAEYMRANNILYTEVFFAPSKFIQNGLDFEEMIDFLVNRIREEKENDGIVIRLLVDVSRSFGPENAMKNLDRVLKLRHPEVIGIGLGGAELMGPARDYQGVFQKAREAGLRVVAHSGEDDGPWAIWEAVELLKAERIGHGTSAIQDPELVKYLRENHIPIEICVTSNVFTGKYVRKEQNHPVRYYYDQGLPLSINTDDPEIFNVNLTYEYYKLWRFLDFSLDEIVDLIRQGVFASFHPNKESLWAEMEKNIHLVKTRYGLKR
In words: UV spectrophotometric cAMP deamination at […] nm, inhibition. The format is biochemical.

The Ki is a dissociation constant, usually derived from enzyme kinetics or from competition with a known ligand. Low values mean tighter binding, high ones weaker binding. Compound `O=P1(O)OC[C@H]2O[C@@H](n3cnc4cncnc43)[C@H](O)[C@@H]2O1` [cPuMP] gave a Ki of 1.3 ± 0.5 µM.
